US20250154147A1, “NOVEL AMINE-SUBSTITUTED PHTHALAZINES AND DERIVATIVES AS SOS1 INHIBITORS” (Jazz Pharmaceuticals Ireland Limited, priority 2022, published 2025)

Target: SOS1 binding to KRAS-WT (Homo sapiens (Human), UniProt Q07889)
Experiment: SOS1/KRAS WT HTRF binding assay (FRET-based protein-protein interaction assay)
Conditions: 40 nM GST-KRAS-WT, 40 nM His6-SOS1 exchange domain, at least two independent replicates; for IC50: read-out: SOS1/KRAS WT HTRF Binding assay pIC50 (converted)
Text: The capacity of compounds to inhibit SOS1 binding to KRAS-WT (wild-type) was quantified using a FRET-based protein-protein interaction assay. The assay is based on the transfer of energy between two fluorophores, a donor and an acceptor, when in close proximity. In this instance, the donor is a Europium-conjugated α-GST antibody that binds to GST-tagged KRAS-WT, and the acceptor is an XL665-conJugated α-His6 antibody that binds to His6-tagged SOS1. Binding of SOS1 to KRAS-WT results in an increased fluorescent signal at emission wavelength of 665 nm which can be detected on the EnVision plate reader. Compounds that inhibit binding will reduce the 665 nm signal emitted. Recombinant KRAS-WT protein (40 nM; Human KRAS, aal-188 recombinant protein with N-terminal GST-tag) and SOS1 protein (40 nM; Human SOS1 exchange domain, aa564-1049 with N-terminal 6His-tag) were mixed together in assay buffer (5 mM HEPES pH7.3, 150 mM NaCl, 10 mM EDTA, 5 mM MgCl2, 0.05% BSA, 0.0025% NP-40, 1 mM DTT and 100 mM KF) and incubated at room temperature with a dose response of compound in a 384-well low volume white plate and a final volume of 5 ul. After a 60 minute incubation, 5 ul of 4 nM anti-GST-Eu(K) (Cisbio, France) combined with 20 nM anti-6His-XL665 (Cisbio, France), diluted in assay buffer, was added to the plate. Following a further 4 h incubation at room temperature, time-resolved fluorescence was measured on the EnVision plate reader. DMSO (0.05%) and 10 μM reference compound were used to generate the Max and Min assay signals, respectively. Data was analyzed using a four-parameter logistic model to calculate IC50 values, with at least two independent replicates performed for each compound.

Chain of SOS1 binding to KRAS-WT (Q07889 564-1049): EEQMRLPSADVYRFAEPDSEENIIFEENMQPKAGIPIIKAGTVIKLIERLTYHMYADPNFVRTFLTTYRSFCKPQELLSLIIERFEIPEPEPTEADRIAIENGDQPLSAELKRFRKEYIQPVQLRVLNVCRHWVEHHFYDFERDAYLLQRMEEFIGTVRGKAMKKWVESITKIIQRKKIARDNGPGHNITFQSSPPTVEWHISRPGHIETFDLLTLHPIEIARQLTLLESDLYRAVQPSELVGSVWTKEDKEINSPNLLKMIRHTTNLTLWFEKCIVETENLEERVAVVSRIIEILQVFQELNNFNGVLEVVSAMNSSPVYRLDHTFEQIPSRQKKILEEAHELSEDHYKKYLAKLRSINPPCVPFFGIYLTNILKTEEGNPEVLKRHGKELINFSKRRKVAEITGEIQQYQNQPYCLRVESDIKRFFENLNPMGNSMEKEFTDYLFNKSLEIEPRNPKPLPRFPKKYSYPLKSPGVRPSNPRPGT

Structure (SMILES) | SOS1/KRAS WT HTRF Binding assay pIC50 | IC50
Cc1nnc(N[C@H](C)c2cccc(C(F)(F)F)c2)c2cn(CC3(C)COC3)c(=O)cc12 [Compound 6, 1-methyl-6-[(3-methyloxetan-3-yl)methyl]-4-[[(1R)-1-[3-(trifluoromethyl)phenyl]ethyl]amino] pyrido[3,4-d]pyridazin-7-one] | 6.34 | –
Cc1nnc(NC(C)c2cccc(C(F)(F)F)c2)c2cn(C3CCCC3)c(=O)cc12 (stereo not shown) [Compound 1, 6-cyclopentyl-1-methyl-4-[1-[3-(trifluoromethyl)phenyl]ethylamino] pyrido[3,4-d]pyridazin-7-one] | 6.72 | –
Cc1nnc(N[C@H](C)c2cccc(C(F)(F)F)c2)c2cc(O[C@H]3CCOC3)cnc12 [Compound 10, 8-methyl-3-[(3S)-tetrahydrofuran-3-yl]oxy-N-[(1R)-1-[3-(trifluoromethyl)phenyl]ethyl]pyrido[2,3-d]pyridazin-5-amine] | 6.76 | –
Cc1nnc(NC(C)c2cccc(C(F)(F)F)c2)c2cc(O[C@H]3CCOC3)cnc12 (stereo partly drawn) [Compound 9, 8-methyl-3-[(3S)-tetrahydrofuran-3-yl]oxy-N-[1-[3-(trifluoromethyl)phenyl]ethyl]pyrido[2,3-d]pyridazin-5-amine] | 6.60 | –
Cc1nnc(N[C@H](C)c2cccc(C(F)(F)F)c2)c2cn(CC3COC3)c(=O)cc12 [Compound 5, 1-methyl-6-(oxetan-3-ylmethyl)-4-[[(1R)-1-[3-(trifluoromethyl)phenyl]ethyl]amino] pyrido[3,4-d]pyridazin-7-one] | 6.52 | –
Cc1nnc(N[C@H](C)c2cccc(C(F)F)c2)c2cc(C3=CCCC3)c(=O)n(C)c12 [Compound 11, 3-(cyclopenten-1-yl)-5-[[(1R)-1-[3-(difluoromethyl)phenyl]ethyl]amino]-1,8-dimethyl-pyrido[2,3-d]pyridazin-2-one] | – | 178 nM
CC(=O)N1CC=C(c2cc3c(N[C@H](C)c4cccc(C(F)(F)F)c4)nnc(C)c3n(C)c2=O)CC1 (racemic) [Compound 19, 3-(1-acetyl-3,6-dihydro-2H-pyridin-4-yl)-1,8-dimethyl-5-[[rac-(1R)-1-[3-(trifluoromethyl)phenyl]ethyl]amino] pyrido[2,3-d]pyridazin-2-one] | – | 36.3 nM
Cc1nnc(NC(C)c2cccc(C(F)(F)F)c2)c2nc(O[C@H]3CCOC3)ccc12 (stereo partly drawn) [Compound 15, 5-methyl-2-[(3S)-tetrahydrofuran-3-yl]oxy-N-[1-[3-(trifluoromethyl)phenyl]ethyl]pyrido[2,3-d]pyridazin-8-amine] | 6.17 | –
Cc1nnc(N[C@H](C)c2cccc(C(F)(F)F)c2)c2cn(CC3CC3)c(=O)cc12 [Compound 4, 6-(cyclopropylmethyl)-1-methyl-4-[[(1R)-1-[3-(trifluoromethyl)phenyl]ethyl]amino] pyrido[3,4-d]pyridazin-7-one] | 6.52 | –
Cc1nnc(N[C@H](C)c2cccc(C(F)(F)F)c2)c2cn(C3CC3)c(=O)cc12 [Compound 13, 6-cyclopropyl-1-methyl-4-[[(1R)-1-[3-(trifluoromethyl)phenyl]ethyl]amino] pyrido[3,4-d]pyridazin-7-one] | 7.20 | –
Cc1nnc(N[C@H](C)c2cccc(C(F)(F)F)c2)c2cn(C3CCOC3)c(=O)cc12 (mixture of isomers) [Compound 8, 1-methyl-4-[[rac-(1R)-1-[3-(trifluoromethyl)phenyl]ethyl]amino]-6-tetrahydrofuran-3-yl-pyrido[3,4-d]pyridazin-7-one] | – | 234 nM
Cc1nnc(N[C@H](C)c2cccc(C(F)(F)F)c2)c2cn(C3(C)CC3)c(=O)cc12 (racemic) [Compound 14, 1-methyl-6-(1-methylcyclopropyl)-4-[[rac-(1R)-1-[3-(trifluoromethyl)phenyl]ethyl]amino] pyrido[3,4-d]pyridazin-7-one] | – | 58.9 nM
CC(=O)N1CCC(c2cc3c(N[C@H](C)c4cccc(C(F)F)c4)nnc(C)c3n(C)c2=O)CC1 [Compound 22, 3-(1-acetyl-4-piperidyl)-5-[[(1R)-1-[3-(difluoromethyl)phenyl]ethyl]amino]-1,8-dimethyl-pyrido[2,3-d]pyridazin-2-one] | – | 35.5 nM
Cc1nnc(N[C@H](C)c2cccc(C(F)(F)F)c2)c2cc(C3=CCCC3)c(=O)n(C)c12 [Compound 12, 3-(cyclopenten-1-yl)-1,8-dimethyl-5-[[(1R)-1-[3-(trifluoromethyl)phenyl]ethyl]amino] pyrido[2,3-d]pyridazin-2-one] | 6.96 | –
CC(=O)N1CCCC(c2cc3c(N[C@H](C)c4cccc(C(F)(F)F)c4)nnc(C)c3n(C)c2=O)C1 (stereo partly drawn) [Compound 18, 3-(1-acetyl-3-piperidyl)-1,8-dimethyl-5-[[(1R)-1-[3-(trifluoromethyl)phenyl]ethyl]amino] pyrido[2,3-d]pyridazin-2-one] | 7.36 | –
Cc1nnc(N[C@H](C)c2cccc(C(F)F)c2)c2cc(C3CCN(C)CC3)c(=O)n(C)c12 (racemic) [Compound 21, 1,8-dimethyl-3-(1-methyl-4-piperidyl)-5-[[rac-(1R)-1-[3-(difluoromethyl)phenyl]ethyl]amino] pyrido[2,3-d]pyridazin-2-one] | – | 53.7 nM
Cc1nnc(N[C@H](C)c2cccc(C(F)(F)F)c2F)c2cc(C3CCNCC3)c(=O)n(C)c12 [Compound 23, 5-[[(1R)-1-[2-fluoro-3-(trifluoromethyl)phenyl]ethyl]amino]-1,8-dimethyl-3-(4-piperidyl)pyrido[2,3-d]pyridazin-2-one] | 7.24 | –
Cc1nnc(N[C@H](C)c2cccc(C(F)(F)F)c2)c2cn(C3CCCC3)c(=O)cc12 [Compound 2, 6-cyclopentyl-1-methyl-4-[[(1R)-1-[3-(trifluoromethyl)phenyl]ethyl]amino] pyrido[3,4-d]pyridazin-7-one] | 7.11 | –
Cc1nnc(N[C@H](C)c2cccc(C(F)F)c2)c2cc(C3CCOCC3)c(=O)n(C)c12 (racemic) [Compound 20, 1,8-dimethyl-5-[[rac-(1R)-1-[3-(difluoromethyl)phenyl]ethyl]amino]-3-tetrahydropyran-4-yl-pyrido[2,3-d]pyridazin-2-one] | – | 93.3 nM
Cc1nnc(N[C@H](C)c2cccc(C(F)(F)F)c2)c2cn(C(C)C)c(=O)cc12 [Compound 7, 6-isopropyl-1-methyl-4-[[(1R)-1-[3-(trifluoromethyl)phenyl]ethyl]amino] pyrido[3,4-d]pyridazin-7-one] | 7.02 | –
CCn1cc2c(N[C@H](C)c3cccc(C(F)(F)F)c3)nnc(C)c2cc1=O [Compound 3, 6-ethyl-1-methyl-4-[[(1R)-1-[3-(trifluoromethyl)phenyl]ethyl]amino] pyrido[3,4-d]pyridazin-7-one] | 6.46 | –
Cc1nnc(N[C@H](C)c2cccc(C(F)(F)F)c2)c2cc(C3=CCCNC3)c(=O)n(C)c12 [Compound 16, 1,8-dimethyl-3-(1,2,3,6-tetrahydropyridin-5-yl)-5-[[(1R)-1-[3-(trifluoromethyl)phenyl]ethyl]amino] pyrido[2,3-d]pyridazin-2-one] | 7.30 | –
